Assay results published in patent EP0212404A1, “7-oxo-4-thia-1-azabicyclo [3.2.0] hept-2-ene derivatives” (HOECHST AKTIENGESELLSCHAFT, priority 1985, dated 1987).
In brackets after ≈: the same amount, converted by molar mass. Read-outs that look alike come from different tables or passages of the source.

Columns and labels:
Experiment in all cases: agar dilution test (MIC)
Assay type in all cases: cell-based
E.coli 055 = details: Escherichia coli, Mueller Hinton agar, 16 to 18 hours at 37°C, read-out: Minimum Inhibitory Concentration (MIC)
Protocol: (§1) The antimicrobial activity was determined by measuring the Minimum Inhibitory Concentration (MIC). The MIC of the compounds was determined by a standard test, the "agar dilution test" according to Lorian (Antibiotics in Laboratory Medicine, Williams and Wilkins, Baltimore/London 1980) as follows:
(§2) A two-fold decreasing concentration series of each compound was prepared in Petri dishes containing 15 ml of Mueller Hinton agar (Difco). One Petri dish containing only the Mueller Hinton agar served as control for bacterial growth. Each Petri dish was inoculated with a multi-point inoculator (Denley), which transferred 0.6µl of a 1:100 diluted 18 hours culture of the appropriate test bacterium. After 16 to 18 hours of incubation at 37°C the Petri dishes were examined for growth of bacteria. The lowest concentration of the compound which causes complete inhibition of growth is taken as the MIC except that the growth of a single colony or a haze is not taken as evidence of qrowth.

E.coli 1507E = details: Escherichia coli, read-out: Minimum Inhibitory Concentration (MIC)
Protocol: as §1, §2

Staph.aureus SG511 = details: Staphylococcus aureus, Mueller Hinton agar, 16 to 18 hours at 37°C, read-out: Minimum Inhibitory Concentration (MIC)
Protocol: as §1, §2

Str.pyogenes 308A = details: Streptococcus pyogenes, Mueller Hinton agar, 16 to 18 hours at 37°C, read-out: Minimum Inhibitory Concentration (MIC)
Protocol: as §1, §2

Ent.cloacae P99 = details: Enterobacter cloacae, Mueller Hinton agar, 16 to 18 hours at 37°C, read-out: Minimum Inhibitory Concentration (MIC)
Protocol: as §1, §2

Staph.aureus 503 = details: Staphylococcus aureus, Mueller Hinton agar, 16 to 18 hours at 37°C, read-out: Minimum Inhibitory Concentration (MIC)
Protocol: as §1, §2

Salm.typh. MZII = details: Mueller Hinton agar, 16 to 18 hours at 37°C, read-out: Minimum Inhibitory Concentration (MIC)
Protocol: as §1, §2

Bac.subt. ATCC6633 = details: Mueller Hinton agar, 16 to 18 hours at 37°C, read-out: Minimum Inhibitory Concentration (MIC)
Protocol: as §1, §2

Kl.aerog. 1522E = details: read-out: Minimum Inhibitory Concentration (MIC)
Protocol: as §1, §2

E.coli TEM = details: Escherichia coli, read-out: Minimum Inhibitory Concentration (MIC)
Protocol: as §1, §2

Staph.aureus 285 = details: Staphylococcus aureus, Mueller Hinton agar, 16 to 18 hours at 37°C, read-out: Minimum Inhibitory Concentration (MIC)
Protocol: as §1, §2

E.coli DC0 = details: Escherichia coli, Mueller Hinton agar, 16 to 18 hours at 37°C, read-out: Minimum Inhibitory Concentration (MIC)
Protocol: as §1, §2

Str.pyogenes 77A = details: Streptococcus pyogenes, Mueller Hinton agar, 16 to 18 hours at 37°C, read-out: Minimum Inhibitory Concentration (MIC)
Protocol: as §1, §2

Ent.cloacae 1321E = details: Enterobacter cloacae, read-out: Minimum Inhibitory Concentration (MIC)
Protocol: as §1, §2

Str.faecium D = details: Enterococcus faecium, read-out: Minimum Inhibitory Concentration (MIC)
Protocol: as §1, §2

Kl.aerog. 1082E = details: Mueller Hinton agar, 16 to 18 hours at 37°C, read-out: Minimum Inhibitory Concentration (MIC)
Protocol: as §1, §2

E.coli DC2 = details: Escherichia coli, Mueller Hinton agar, 16 to 18 hours at 37°C, read-out: Minimum Inhibitory Concentration (MIC)
Protocol: as §1, §2

E.coli KN126 = details: Escherichia coli, Mueller Hinton agar, 16 to 18 hours at 37°C, read-out: Minimum Inhibitory Concentration (MIC)
Protocol: as §1, §2

[1] = Str.faecium D, Mueller Hinton agar, 16 to 18 hours at 37°C
[2] = E.coli 1507E, Mueller Hinton agar, 16 to 18 hours at 37°C
[3] = Kl.aerog. 1522E, Mueller Hinton agar, 16 to 18 hours at 37°C
[4] = Ent.cloacae 1321E, Mueller Hinton agar, 16 to 18 hours at 37°C

SMILES	MIC (E.coli 055)	MIC (E.coli 1507E; 1507E)	MIC (Staph.aureus SG511)	MIC (Str.pyogenes 308A)	MIC (Ent.cloacae P99)	MIC (Staph.aureus 503)	MIC (Salm.typh. MZII)	MIC (Bac.subt. ATCC6633)	MIC (Kl.aerog. 1522E)	MIC (E.coli TEM)	MIC (Staph.aureus 285)	MIC (E.coli DC0)	MIC (Str.pyogenes 77A)	MIC (Ent.cloacae 1321E; 1321E)	MIC (Str.faecium D; [1])	MIC (Kl.aerog. 1082E)	MIC (E.coli DC2)	MIC (E.coli KN126)	MIC (E.coli 1507E; [2])	MIC (Kl.aerog. 1522E; [3])	other results
C[C@@H](O)[C@H]1C(=O)N2C(C(=O)O)=C(c3ccc(Cl)cc3)S[C@H]12 [Example 4-Cl]	3.13 µg/mL (≈ 9.61 µM)	12.5 µg/mL (≈ 38.4 µM)	0.05 µg/mL (≈ 0.153 µM)	< 0.05 µg/mL	50 µg/mL (≈ 153 µM)	0.1 µg/mL (≈ 0.307 µM)	6.25 µg/mL (≈ 19.2 µM)	0.05 µg/mL (≈ 0.153 µM)	12.5 µg/mL (≈ 38.4 µM)	12.5 µg/mL (≈ 38.4 µM)	0.1 µg/mL (≈ 0.307 µM)	25 µg/mL (≈ 76.7 µM)	< 0.05 µg/mL	6.25 µg/mL (≈ 19.2 µM)	1.56 µg/mL (≈ 4.79 µM)	0.78 µg/mL (≈ 2.39 µM)	0.39 µg/mL (≈ 1.2 µM)	12.5 µg/mL (≈ 38.4 µM)	–	–	–
C[C@@H](O)[C@H]1C(=O)N2C(C(=O)O)=C(c3ccc(NC=O)cc3)S[C@H]12 [Example 4-NHCHO]	0.19 µg/mL (≈ 0.568 µM)	–	0.05 µg/mL (≈ 0.15 µM)	< 0.013 µg/mL	6.25 µg/mL (≈ 18.7 µM)	0.1 µg/mL (≈ 0.299 µM)	–	0.025 µg/mL (≈ 0.0748 µM)	–	0.39 µg/mL (≈ 1.17 µM)	0.1 µg/mL (≈ 0.299 µM)	0.78 µg/mL (≈ 2.33 µM)	< 0.013 µg/mL	–	0.78 µg/mL (≈ 2.33 µM)	0.19 µg/mL (≈ 0.568 µM)	0.19 µg/mL (≈ 0.568 µM)	0.39 µg/mL (≈ 1.17 µM)	0.39 µg/mL (≈ 1.17 µM)	0.39 µg/mL (≈ 1.17 µM)	MIC (Ent.cloacae 1321E; [4]): 0.39 µg/mL (≈ 1.17 µM)
COc1ccc(C2=C(C(=O)O)N3C(=O)[C@H]([C@@H](C)O)[C@H]3S2)cc1 [Example 4-OCH3]	3.13 µg/mL (≈ 9.74 µM)	12.5 µg/mL (≈ 38.9 µM)	0.1 µg/mL (≈ 0.311 µM)	< 0.05 µg/mL	100 µg/mL (≈ 311 µM)	0.19 µg/mL (≈ 0.591 µM)	6.25 µg/mL (≈ 19.4 µM)	0.1 µg/mL (≈ 0.311 µM)	12.5 µg/mL (≈ 38.9 µM)	12.5 µg/mL (≈ 38.9 µM)	0.19 µg/mL (≈ 0.591 µM)	25 µg/mL (≈ 77.8 µM)	< 0.05 µg/mL	12.5 µg/mL (≈ 38.9 µM)	3.13 µg/mL (≈ 9.74 µM)	0.78 µg/mL (≈ 2.43 µM)	0.78 µg/mL (≈ 2.43 µM)	12.5 µg/mL (≈ 38.9 µM)	–	–	–
C[C@@H](O)[C@H]1C(=O)N2C(C(=O)O)=C(c3ccccc3)S[C@H]12 [H]	0.78 µg/mL (≈ 2.68 µM)	1.56 µg/mL (≈ 5.35 µM)	0.1 µg/mL (≈ 0.343 µM)	< 0.05 µg/mL	12.5 µg/mL (≈ 42.9 µM)	0.1 µg/mL (≈ 0.343 µM)	–	0.1 µg/mL (≈ 0.343 µM)	1.56 µg/mL (≈ 5.35 µM)	1.56 µg/mL (≈ 5.35 µM)	0.19 µg/mL (≈ 0.652 µM)	3.12 µg/mL (≈ 10.7 µM)	< 0.05 µg/mL	1.56 µg/mL (≈ 5.35 µM)	–	0.78 µg/mL (≈ 2.68 µM)	0.39 µg/mL (≈ 1.34 µM)	3.12 µg/mL (≈ 10.7 µM)	–	–	MIC (Str.faecium D): 1.56 µg/mL (≈ 5.35 µM)
CC(O)C1C(=O)N2C(C(=O)O)=C(c3ccc(C(N)=O)cc3)SC12 (stereo not drawn) [Example 4-CONH2, 3-(4-aminocarbonylphenyl)-6-(1-hydroxyethyl)-7-oxo-4-thia-1-azabicyclo[3.2.0]hept-2-ene 2-carboxylic acid]	0.19 µg/mL (≈ 0.568 µM)	–	0.05 µg/mL (≈ 0.15 µM)	0.013 µg/mL (≈ 0.0389 µM)	6.25 µg/mL (≈ 18.7 µM)	0.1 µg/mL (≈ 0.299 µM)	–	0.05 µg/mL (≈ 0.15 µM)	–	0.39 µg/mL (≈ 1.17 µM)	0.1 µg/mL (≈ 0.299 µM)	0.78 µg/mL (≈ 2.33 µM)	0.013 µg/mL (≈ 0.0389 µM)	–	1.56 µg/mL (≈ 4.67 µM)	0.39 µg/mL (≈ 1.17 µM)	0.39 µg/mL (≈ 1.17 µM)	0.39 µg/mL (≈ 1.17 µM)	0.39 µg/mL (≈ 1.17 µM)	0.39 µg/mL (≈ 1.17 µM)	MIC (Ent.cloacae 1321E; [4]): 0.39 µg/mL (≈ 1.17 µM)
